{"source": "paper PMC6611794", "about": "“Development of a high-throughput strategy for discovery of potent analogues of antibiotic lysocin E” (Nature Communications, 2019)", "origin": "cited, not measured here", "test_system": "S. aureus", "set-up": "method as in PMID 25485686", "settings": "S. aureus-infected mice; cited from earlier work", "excerpt": "Lysocin E (1, Fig. 1a) was isolated from Lysobacter sp. as a new antibiotic and structurally determined to be a 37-membered depsipeptide (molecular weight = 1618 Da) with an N-methylated amide and ester linkages. The macrocyclic core of 12 residues contains four different non-proteinogenic D-amino acids (D-Arg-2/7, N-Me-D-Phe-5, D-Gln-9, D-Trp-10) and is appended with (R)-3-hydroxy-5-methylhexanamide. […] Screening of the additives ind ..."}
{"smiles": "CN[C@H](CC(C)C)C(=O)N[C@H]1C(=O)N[C@@H](CC(N)=O)C(=O)N[C@H]2C(=O)N[C@H]3C(=O)N[C@H](C(=O)N[C@H](C(=O)O)c4cc(O)cc(O)c4-c4cc3ccc4O)[C@H](O)c3ccc(c(Cl)c3)Oc3cc2cc(c3O[C@@H]2O[C@H](CO)[C@@H](O)[C@H](O)[C@H]2O[C@H]2C[C@](C)(N)[C@H](O)[C@H](C)O2)Oc2ccc(cc2Cl)[C@H]1O", "note": "[vancomycin, reference compound]", "values": [{"measurement": "ED50", "value": 5.8, "unit": "mg/kg"}]}
